Experimental data as given in patent publication US20190015518A1, “DRUG DELIVERY COMPOSITIONS AND METHODS” (priority 2016, published 2019).
“And” between values parts separate entries of the source, which are not always exact repeats. Identical values can stand only once.

Tests used:
[1] = tested on: MDA-1986 (human head and neck squamous cell carcinoma) cells; assay: Anti-proliferative activity (Resazurin Blue, 72 hours); format: cell-based
Procedure: (§3) MDA-1986 (human head and neck squamous cell carcinoma), 4T1.2-neu (murine breast cancer cells), and A2058 (human melanoma) cells were maintained in Dulbecco's Modified Eagle Medium (DMEM, Corning, Manassas, Va.) with 4.5 g/L glucose, 4.5 g/L L-glutamine, and 10% fetal bovine serum in a humidified incubator at 37° C. and 5% CO2. Cells were seeded into 96-well plates (3,000 cells/well in 90 μL media) and allowed to attach overnight. […] Resazurin Blue (Acros Organics, Geel, Belgium) in PBS was added to each well (5-μM final concentration; 10-μL addition) and incubated at 37° C. for 4 hours. Fluorescence (λex 550 nm, λem 605 nm) was quantified with a SpectraMax Gemini XS plate-reader (Molecular Devices, Sunnyvale, Calif.). The relative growth of cells incubated with each compound concentration was normalized to vehicle-treated controls (100% proliferation). Data from at least three separate experiments performed in duplicate was analyzed using non-linear regression (GraphPad Prism 5.0) to generate IC50 values.

[2] = tested on: A2058 (human melanoma) cells; assay: as above; format: cell-based; settings: mean ± S.E.M., cisplatin basis
Procedure: as §3

[3] = tested on: 4T1.2-neu (murine breast cancer cells); assay: as above; format: cell-based; settings: mean ± S.E.M., cisplatin basis
Procedure: as §3

white blood cell DNA = assay: Pt-DNA adduct quantitation in white blood cell DNA; format: in vivo, rat; settings: for Pt-DNA adduct Tmax / Pt-DNA adduct AUC: cisplatin i.v. 10 mg/kg, HA-Lys-Pt s.c. 10 mg/kg cisplatin basis; for Pt-DNA adduct AUC: 10 mg/kg
Procedure: (§1) Whole blood was centrifuged (1500×g, 5 min., 4° C., no brake). Top layer (plasma) and middle layer (white blood cells) were transferred to new tubes. Plasma was frozen (−20° C.) until analysis. […] The white blood cell pellet was washed twice with cold PBS and re-suspended in 9 mL of white blood cell buffer (10-mM Tris, pH 7.4, 2.3% NaCl, 2-mM EDTA), and 900 μL of 1.1-M NH4HCO3, 900 μL of 10% SDS, and 75 μL of 2% Proteinase K were added and incubated at 42° C. overnight. Then, 3.3 mL of 5-M NaCl was added, samples shaken vigorously, and centrifuged twice (3200×g, 5 min, 4° C.), each time discarding the pellet. DNA was pelleted with 20 mL of ice-cold 100% ethanol and centrifuged (3200×g, 5 min, 4° C.); the DNA pellet was washed twice with 75% ethanol, re-suspended in water, and quantitated. DNA was digested in 1% HNO3 (800 μL total volume) overnight at 70° C. DNA samples were diluted 1:10 in 1% HNO3 and plasma samples were diluted 1:10,000 in 1% HNO3. Diluted samples were analyzed for Pt content using ICP-MS with a calibration curve from 1-1000 ppt.

[4] = tested on: MDA-1986 head and neck tumors; assay: Anticancer efficacy, orthotopic xenograft model of human HNSCC; format: in vivo, mouse; design: key to tumor response, Modified RECIST: PR=Partial Response (>30% reduction); PD=Progressive Disease (>30% tumor growth); SD=Stable Disease (neither PR nor PD criteria met)
Procedure: The MDA-1986 cells were prepared in PBS at a concentration of 2×10^7 cells/mL. Female NU/NU mice were anesthetized under 2% isoflurane in O2, and 50 μL of cell solution was injected into the oral sub-mucosa of the mice using a 27-ga needle. All procedures in the animal study were approved by the Institutional Animal Care and Use Committee of the University of Kansas. Tumor growth was monitored twice weekly by measurement with a digital caliper, and the tumor volume was calculated as 0.52×(width)^2×(length). […] The drugs were given weekly for 3 consecutive weeks.

[5] = tested on: spontaneous canine cancers; settings: dogs; cited from earlier work
[6] = human, in vivo; cited from earlier work
[7] = Viscosity reduction by excipients (rheometer); format: physicochemical; settings: 37° C.
Procedure: The viscosity of 29 kDa HA (60 mg/mL), 33HA-Lys (33 kDa HA with linker, 8 mg/mL on HA basis), and 33HA-Lys-Pt (41.7 mg/mL on HA basis) with increasing concentration of mannitol (0, 0.1, 0.5 and 1 M) were measured using a rheometer at 37° C.
(§2) The solutions were incubated in the dark for 20 hours using a CLAY ADAMS® Brand Nutator. After 20 hours, the pH of the solutions were adjusted to pH 6.0 using 1N NaOH. A Brookfield DVIII Ultra Programmable Rheometer was used to measure the viscosity of three 500-μL samples of each solution. Measurements were taken for each at three different RPMs, where the torque ranged from 10-100%. Values for viscosity were not recorded until at least 30 seconds after the motor was started, after the torque readings were stabilized.
as §2, with “to pH 5.0 or 6.0 using” for “to pH 6.0 using”

[8] = Viscosity reduction by excipients (rheometer); format: physicochemical; settings: sucrose 0.1, 0.5 and 1 M, 37° C.
[9] = HPLC of small molecular platinum species after storage; format: physicochemical; settings: solution stored at 4° C. for 4 days
Procedure: Small molecular platinum species including cisplatin, Pt-monoaqua, and Pt-diaqua were quantified by HPLC. The mobile phase was sodium phosphate solution (10-mM, pH 3.0) at a flow rate of 0.25 mL/min on an Alltech® 250 mm×4.6 mm M/M RP8/cation column thermostated at 25° C. […] The filtrate was immediately injected into the HPLC.

Plasma Pt quantitation = settings: cisplatin i.v. 10 mg/kg; HA-Lys-Pt s.c. 10 mg/kg cisplatin basis
Procedure: as §1

[10] = Toxicity of HA-Lys-Pt in healthy Balb/c mice; format: in vivo, mouse
Procedure: The toxicity of HA-Lys-Pt was evaluated in healthy Balb/c mice. […] Another group of Balb/c mice was injected subcutaneously with 8.86 (N=2), 13.3 (N=2), 17.7 (N=2), 20 (N=2), 30 (N=2), and 40 mg/kg (N=1) of the 33HA-Lys-Pt. Their body weights and symptoms of toxicities were monitored twice per week for up to 2 months.

[11] = Transmission electron microscopy, particle diameter; format: physicochemical; settings: TEM
Description: FIGS. 4A and 4B show the transmission electron microscopy images of HA-Lys-Pt (75 kD HA) before and after salt treatment for 2 weeks. The average diameters of HA-Lys-Pt particles ranged from 25 to 50 nm. […] Intense darkness results from the high electron density of Pt rich area. […] Reduced clustering of the salt treated nanoparticles may be due to reduced hydrophobicity due to release of Pt and availability of charged chelator groups.

[12] = tested on: head and neck squamous cell carcinoma cells, MDA-1986; assay: Cytotoxicity of HA-GluH-Pt (Resazurin blue); format: cell-based, human; settings: 72 hours
Procedure: Cell growth inhibition was determined in 96-well plates using head and neck squamous cell carcinoma cells, MDA-1986. […] Plates were seeded with 3,000 cells/well in 90 uL of media (6 replicates/sample). Ten microliters of HA-GluH-Pt conjugate solutions were applied after 24 hours. Resazurin blue in 10 uL of PBS was applied to each well (final concentration 5 uM) after another 72 hours.

[13] = tested on: MDA-1986 cells that overexpress CD44; assay: CD44 specificity and cellular uptake of HA-GluH-Pt; format: cell-based, human; settings: 30-μg/mL, 6 h
Procedure: CD44 specificity and cellular internalization mechanism of HA-GluH-Pt was investigated using MDA-1986 cells that overexpress CD44. Chlorpromazine was used as an endocytosis inhibitor. Cells were pretreated with 25-μM chlorpromazine or 10-μg/mL anti-CD44 1 h before the addition of 30-μg/mL HA-GluH-Pt (on platinum basis) and subsequent incubation for 6 h. Cells were trypsinized, lysed by sonication and diluted 20 fold prior to ICP-MS analysis.

[14] = Toxicity of HA-GluH-Pt in mice; format: in vivo, mouse; settings: single s.c. 20, 40, 67 and 100 mg/kg, 2 months
Procedure: The toxicity of HA-GluH-Pt was evaluated in blab/C mice. Four blab/C mice were injected subcutaneously with 20, 40, 67 and 100 mg/kg HA-GluH-Pt. The body weights of the animals were checked weekly for 2 months.

N.N.[Cl][Pt][Cl] [Cisplatin, cisplatin, reference compound]
IC50 ([1]; mean ± S.E.M., cisplatin basis): 8.2 ± 0.6 µM
IC50 ([1]; mean ± S.E.M., cisplatin basis, listed as cisplatin): ~8 µM
IC50 [2]: 6.8 ± 2.7 µM
IC50 ([2]; listed as cisplatin): ~8 µM
IC50 [3]: 9.4 ± 2.5 µM
IC50 ([3]; listed as cisplatin): ~8 µM
Pt-DNA adduct Tmax (white blood cell DNA): 1 h
Pt-DNA adduct AUC (white blood cell DNA): 1466 pg Pt×h/μg DNA and 1255 pg Pt×h/μg DNA
levels of adduct formation over the time course (white blood cell DNA; i.v. 10 mg/kg, 15 minutes to 96 hours): 11-16 pg Pt/μg DNA
tumor response, Modified RECIST ([4]; animal #1): PR (PR=Partial Response (>30% reduction))
tumor response, Modified RECIST ([4]; animal #2): PD (PD=Progressive Disease (>30% tumor growth))
tumor response, Modified RECIST ([4]; animal #3): SD
tumor response, Modified RECIST ([4]; animal #4): PR (PR=Partial Response (>30% reduction))
tumor response, Modified RECIST ([4]; animal #5): PD (PD=Progressive Disease (>30% tumor growth))
tumor response, Modified RECIST ([4]; animal #6): PR (PR=Partial Response (>30% reduction))
tumor response, Modified RECIST ([4]; animal #7): PD (PD=Progressive Disease (>30% tumor growth))
tumor response, Modified RECIST ([4]; animal #8): PD (PD=Progressive Disease (>30% tumor growth))
rate of partial response (PR) ([4]; three weekly injections): 37.5%
rate of progressive disease (PD) ([4]; three weekly injections): 50%
cure in heterogeneous oral squamous cell carcinomas [5]: 7%

N.N.O=C([O-])C1(C(=O)[O-])CCC1.[Pt+2] [carboplatin]
patients in whom thrombocytopenia is dose limiting [6]: 25%

HA6.4-cis-[Pt(NH3)2(Nα-Acetyl-L-lysine)] [HA6.4-lys-Pt]
cell growth inhibition ([1]; highest dose tested (300 μM)): < 50%
IC50 ([1]; mean ± S.E.M., cisplatin basis): > 500 µM

HA-cis-[Pt(NH3)2(N^α-Acetyl-L-Lysine)] [33HA-Lys-Pt]
IC50 ([1]; mean ± S.E.M., cisplatin basis, listed as HA-Lys-Pt 33 kDa): 20.7 ± 2.9 µM
IC50 ([1]; text b180, listed as HA-Lys-Pt 33 kDa): ~40 µM
tumor response, Modified RECIST ([4]; animal #1): PR (PR=Partial Response (>30% reduction))
tumor response, Modified RECIST ([4]; animal #2): PR (PR=Partial Response (>30% reduction))
tumor response, Modified RECIST ([4]; animal #3): SD
tumor response, Modified RECIST ([4]; animal #4): PR (PR=Partial Response (>30% reduction))
tumor response, Modified RECIST ([4]; animal #5): PR (PR=Partial Response (>30% reduction))
tumor response, Modified RECIST ([4]; animal #6): SD
tumor response, Modified RECIST ([4]; animal #7): PR (PR=Partial Response (>30% reduction))
tumor response, Modified RECIST ([4]; animal #8): PR (PR=Partial Response (>30% reduction))
rate of partial response (PR) ([4]; three weekly injections): 75%
effect on viscosity ([7]; mannitol 0.1, 0.5 and 1 M): reduced the viscosity
effect on viscosity ([7]; trehalose 0.1, 0.5 and 1 M): reduced the viscosity
effect on viscosity [8]: reduced the viscosity

HA-cis-[Pt(NH3)2(N^α-Acetyl-L-Lysine)] [HA-Lys-Pt]
Pt-monoaqua and Pt-diaqua detection [9]: Neither Pt-monoaqua nor Pt-diaqua was detected
Pt-DNA adduct Tmax (white blood cell DNA): 48 h
Pt-DNA adduct AUC (white blood cell DNA): 5247 pg Pt×h/μg DNA
plasma Pt Cmax (Plasma Pt quantitation): 4.1±2.4 μg Pt/mL plasma
plasma Pt Tmax (Plasma Pt quantitation): 24 h
body weight recovery ([10]; 20 or 30 mg/kg (on cisplatin basis), weight loss began one-week post treatment): returned to pre-dose weight within another two weeks
body weight recovery ([10]; highest dose (40 mg/kg), compared with 20 or 30 mg/kg): one additional week
acute toxic reactions including lethargy, paralysis, and respiratory depression ([10]; single s.c. injection, any dose level): not observed
weight loss ([4]; single dose of 20 mg/kg): less than 5%
weight loss ([4]; three weekly doses of 20 mg/kg, after the last injection): more than 20%
diameters of nanoparticles ([11]; after salt treatment for 2 weeks): 25-50 nm
diameters of nanoparticles ([11]; freshly made): 25-50 nm

HA-cis-[Pt(NH3)2(Nα-AcetylGluH)] [HA-GluH-Pt]
IC50 [12]: 623 µM
cellular uptake in anti-CD44 antibody and chlorpromazine treated cells [13]: did not differ significantly from the non-treated control
weight loss [14]: Less than 5%
